# Literature values in PMC6323428, “Elucidation of the Intestinal Absorption Mechanism of Loganin in the Human Intestinal Caco-2 Cell Model” (Evidence-based Complementary and Alternative Medicine : eCAM, 2018).
# Tested on: human intestinal Caco-2 cells
# Set-up: method as in PMID 27531366
# Conditions: Caco-2 cells model, chiefly passive diffusion; cited from earlier work
smiles,measurement,value
COC(=O)C1=CO[C@@H](O[C@@H]2O[C@H](CO)[C@@H](O)[C@H](O)[C@H]2O)[C@@H]2C(CO)=CC[C@H]12 [geniposide],Intestinal permeability (in words),good
